Data taken from US8092816B2, “Insecticidal compositions for control of general household pests” (priority 2004, dated 2012).

Columns and labels:
[1] = test system: Red Imported Fire Ant; assay: Example 6: red imported fire ant knockdown and mortality, bifenthrin and imidacloprid (higher rates); type: in vivo, Solenopsis invicta
Excerpt: (§1) The following examples further illustrate the present invention, but, of course, should not be construed as in any way limiting its scope. The examples set forth certain biological data illustrating the efficacy of the compositions of the present invention in controlling general household pests. Each example embodies a separate test wherein the pests were randomly selected from a population at a random age. As a result, from example to example, the ages of the pests can be very different. This age difference potentially translates to different baselines for each example. Therefore, data should only be compared within the example and not from example to example due to the differences in age of the pests from example to example. Unless otherwise indicated, all parts, percentages, and the like are by weight. The spray chamber used in the examples was approximately 76 inches tall, 73 inches long and 31 inches deep with an adjustable shelf (approximately 22 inches deep) and a movable spray nozzle. The spray chambers were calibrated to deliver a volume of approximately 1 gallon of liquid per 1000 square feet of area at about 14 pounds per square inch of pressure. A DeVilbiss hand held sprayer (Atomizer model 152) manufactured by DeVilbiss located in Glendale Heights, Ill. was used in testing house flies and mosquitoes. The DeVilbiss was used to apply approximately 3-5 milliliters of product at about 10 pounds per square inch.
(§2) The compositions of the present invention were tested for red imported fire ant activity in the following manner:
(§3) Test compositions made up of TALSTARONE® MULTI-INSECTICIDE and a wettable powder of imidacloprid (MERIT) in distilled water were prepared that provided appropriate rates of application of combinations of bifenthrin and imidacloprid, as well as bifenthrin and imidacloprid alone.
(§4) The spray chamber was then calibrated to deliver the treatment solution at the desired volume and pressure over the desired area on the chamber shelf. Spray chamber shelf height was adjusted to approximately 18 inches from the spray tip. The shelf was then covered with aluminum foil and the center of the shelf from front-to-back and end-to-end was determined. The red imported file ants to be treated were collected and placed in screened 16 oz paper cups. The paper cups were placed onto the aluminum foil on the spray chamber shelf. The sprayer was activated and the test compound was applied to each paper cup interior. Red imported fire ant knockdown and mortality were measured.

[2] = test system: German cockroach; assay: Example 13: German cockroach mortality, bifenthrin and clothianidin; type: in vivo
Excerpt: as §1
The compositions of the present invention were tested for German cockroach activity in the following manner:
Test compositions made up of TALSTARONE® MULTI-INSECTICIDE and a 16% a.i. water dispersible granular of clothianidin in distilled water were prepared that provided appropriate rates of application of combinations of bifenthrin and clothianidin, as well as bifenthrin and clothianidin alone.
The spray chamber was then calibrated to deliver the treatment solution at the desired volume and pressure over the desired area on the chamber shelf. Spray chamber shelf height was adjusted to approximately 18 inches from the spray tip. The shelf was then covered with aluminum foil and the center of the shelf from front-to-back and end-to-end was determined. A desired number of 4.0″ sieve circles were marked on the aluminum foil with a permanent marker. The inside of a desired number of PVC rings were coated with a petroleum jelly/mineral oil mixture (1:2 ratio). The PVC rings were place on the sieve circles. 10 male German cockroaches were placed inside each PVC ring. The sprayer was activated and the test compound was applied to each PVC ring interior. German cockroach mortality was measured.

[3] = test system: American cockroach; assay: Example 9: American cockroach knockdown and mortality, bifenthrin and thiamethoxam; type: in vivo
Excerpt: as §1
The compositions of the present invention were tested for American cockroach activity in the following manner:
Test compositions made up of TALSTARONE® MULTI-INSECTICIDE and a water dispersible granular of thiamethoxam (CENTRIC) in distilled water were prepared that provided appropriate rates of application of combinations of bifenthrin and thiamethoxam, as well as bifenthrin and thiamethoxam alone.
The spray chamber was then calibrated to deliver the treatment solution at the desired volume and pressure over the desired area on the chamber shelf. Spray chamber shelf height was adjusted to approximately 18 inches from the spray tip. The shelf was then covered with aluminum foil and the center of the shelf from front-to-back and end-to-end was determined. A desired number of 4.0″ sieve circles were marked on the aluminum foil with a permanent marker. The inside of a desired number of PVC rings were coated with a petroleum jelly/mineral oil mixture (1:2 ratio). The PVC rings were place on the sieve circles. 10 male American cockroaches were placed inside each PVC ring. The sprayer was activated and the test compound was applied to each PVC ring interior. American cockroach knockdown and mortality were measured.

[4] = test system: Red Imported Fire Ant; assay: Example 5: red imported fire ant knockdown and mortality, bifenthrin and imidacloprid; type: in vivo, Solenopsis invicta
Excerpt: as §1, §2, §3
as §4, with “fire” for “file”

[5] = rate of appln. 10 PPM (0.001% by weight)
[6] = rate of appln. 50 PPM (0.005% by weight)

SMILES: Cc1c(COC(=O)[C@@H]2[C@H](/C=C(\Cl)C(F)(F)F)C2(C)C)cccc1-c1ccccc1 (racemic) [A, 2-methylbiphenyl-3-ylmethyl (Z)-(1RS)-cis-3-(2-chloro-3,3,3-trifluoroprop-1-enyl)-2,2-dimethylcyclopropanecarboxylate]
- Knockdown Rate @ 5 minute ([1]; 200 PPM, 0.02% by weight): 0%
- Knockdown Rate @ 10 minute ([1]; 200 PPM, 0.02% by weight): 0%
- Knockdown Rate @ 15 minute ([1]; 200 PPM, 0.02% by weight): 70%
- Knockdown Rate @ 30 minutes ([1]; 200 PPM, 0.02% by weight): 88%
- Mortality @ 120 minutes ([1]; 200 PPM, 0.02% by weight): 100%
- Mortality Rate @ 60 minutes ([1]; 200 PPM, 0.02% by weight): 100%
- Mortality Rate @ 4 hours ([1]; 200 PPM, 0.02% by weight): 100%
- Knockdown Rate @ 5 minute ([1]; 600 PPM, 0.06% by weight): 0%
- Knockdown Rate @ 10 minute ([1]; 600 PPM, 0.06% by weight): 40%
- Knockdown Rate @ 15 minute ([1]; 600 PPM, 0.06% by weight): 88%
- Knockdown Rate @ 30 minutes ([1]; 600 PPM, 0.06% by weight): 100%
- Mortality @ 120 minutes ([1]; 600 PPM, 0.06% by weight): 100%
- Mortality Rate @ 60 minutes ([1]; 600 PPM, 0.06% by weight): 100%
- Mortality Rate @ 4 hours ([1]; 600 PPM, 0.06% by weight): 100%
- Mortality Rate @ 60 minutes [2, 5]: 8%
- Mortality Rate @ 120 minutes [2, 5]: 33%
- Mortality Rate @ 1 day [2, 5]: 35%
- Mortality Rate @ 2 days [2, 5]: 60%
- Mortality Rate @ 4 days [2, 5]: 100%
- Mortality Rate @ 60 minutes [2, 6]: 15%
- Mortality Rate @ 120 minutes [2, 6]: 48%
- Mortality Rate @ 1 day [2, 6]: 58%
- Mortality Rate @ 2 days [2, 6]: 100%
- Mortality Rate @ 4 days [2, 6]: 100%
- Knockdown Rate @ 15 minute ([3]; 10 PPM, 0.001% by weight): 0%
- Knockdown Rate @ 30 minute ([3]; 10 PPM, 0.001% by weight): 0%
- Mortality Rate @ 60 minutes ([3]; 10 PPM, 0.001% by weight): 0%
- Mortality Rate @ 120 minutes ([3]; 10 PPM, 0.001% by weight): 0%
- Mortality Rate @ 4 hours ([3]; 10 PPM, 0.001% by weight): 0%
- Mortality Rate @ 1 day ([3]; 10 PPM, 0.001% by weight): 5%
- Knockdown Rate @ 15 minute ([3]; 50 PPM, 0.005% by weight): 0%
- Knockdown Rate @ 30 minute ([3]; 50 PPM, 0.005% by weight): 0%
- Mortality Rate @ 60 minutes ([3]; 50 PPM, 0.005% by weight): 0%
- Mortality Rate @ 120 minutes ([3]; 50 PPM, 0.005% by weight): 0%
- Mortality Rate @ 4 hours ([3]; 50 PPM, 0.005% by weight): 0%
- Mortality Rate @ 1 day ([3]; 50 PPM, 0.005% by weight): 30%
- Knockdown Rate @ 5 minute ([4]; 10 PPM, 0.001% by weight): 30%
- Knockdown Rate @ 10 minute ([4]; 10 PPM, 0.001% by weight): 93%
- Knockdown Rate @ 15 minute ([4]; 10 PPM, 0.001% by weight): 95%
- Knockdown Rate @ 30 minutes ([4]; 10 PPM, 0.001% by weight): 100%
- Mortality Rate @ 60 minutes ([4]; 10 PPM, 0.001% by weight): 65%
- Mortality Rate @ 120 minutes ([4]; 10 PPM, 0.001% by weight): 100%
- Mortality Rate @ 4 hours ([4]; 10 PPM, 0.001% by weight): 100%
- Mortality Rate @ 1 day ([4]; 10 PPM, 0.001% by weight): 100%
- Knockdown Rate @ 5 minute ([4]; 50 PPM, 0.005% by weight): 10%
- Knockdown Rate @ 10 minute ([4]; 50 PPM, 0.005% by weight): 70%
- Knockdown Rate @ 15 minute ([4]; 50 PPM, 0.005% by weight): 95%
- Knockdown Rate @ 30 minutes ([4]; 50 PPM, 0.005% by weight): 100%
- Mortality Rate @ 60 minutes ([4]; 50 PPM, 0.005% by weight): 100%
- Mortality Rate @ 120 minutes ([4]; 50 PPM, 0.005% by weight): 100%
- Mortality Rate @ 4 hours ([4]; 50 PPM, 0.005% by weight): 100%
- Mortality Rate @ 1 day ([4]; 50 PPM, 0.005% by weight): 100%
